# Test results as given in patent US12121515B2, “Piperidine urea derivatives as soluble epoxide hydrolase inhibitors” (NeuroPn Therapeutics, Inc., priority 2021, dated 2024).
# Assays:
# [1] = system: MPTP induced toxicity on neuronal cells; test: MPTP induced Parkinsonism in zebrafish, brain pathology (degenerated neurons in mid brain smear); type: in vivo; conditions: H&E
# Experimental: Fishes were conditioned to consume three pellets a day. […] To prepare fish feed pellets containing L-DOPA 4 μl of 1 ng/μl of L-DOPA stock solution was distributed across 3 fish feed pellets ‘1.3 μl/pellet. Fish were fed, three pellets a day. Concentration of compounds dosed was controlled by number of pellets and the quantity of compound per pellet. Feed pellets without drug but with vehicle were used as placebo or control.
# Brain Pathology: Fish were anesthetized with 15° C. water and sacrificed by a cut between the brain and the spinal cord. Brain was dissected and portions of mid brain were removed with a pin and knife. The brain tissue was smeared on a glass slide and stained with Haematoxylin & Eosin respectively for 2 minutes each followed by water washes. Slides were viewed at 45× magnification using Labomed LX 400 microscope. The number of degenerated neurons were counted for three fields per smear. […]
# [2] = system: MPTP induced Parkinsonism in zebrafish; test: MPTP induced Parkinsonism in zebrafish, locomotor activity; type: in vivo; conditions: adult zebrafish, MPTP model; oral in feed pellets; may reflect L-DOPA-induced dyskinesia; FIG. 4
# Experimental: The methodology described by Bretaud et al (Neurotoxicol Teratol. 2004 November-December; 26(6), 857-64) was used to study parkinsonism in zebrafish. For MPTP (1-methyl-4-phenyl-1,2,3,6-tetrahydropyridine) induced Parkinsonism, adult zebrafish were injected with 3 μl of 60 μg/g of MPTP as intramuscular injection along the lateral muscles.
# Compound B of Formula I or L-DOPA were dosed orally by mixing with the fish feed pellets. Fishes were conditioned to consume three pellets a day. To prepare feed containing 1 ng of Compound B of Formula I, stock of 1 ng/μl Compound B was diluted to 10 μl in Ringer's solution and distributed to 3 fish feed pellets (‘3.3 μl per pellet). Prior to adding Compound B, fish feed pellets were dried at 37° C. for 1 hour to remove moisture. Post addition of Compound B solution and absorption by the pellet, pellets were stored at 4° C. […] Concentration of compounds dosed was controlled by number of pellets and the quantity of compound per pellet. […]
# Locomotor Activity: The observation tank was divided into four zones by drawing three vertical lines at equal distances, at a length of 6.25 cm per zone. The number of lines that adult zebrafish crossed over a period of 5 minutes was counted. Fishes were allowed to acclimatize in measurement tanks for a period of 30 minutes before readings were taken. […]
compound,measurement,setting,value
N[C@@H](Cc1ccc(O)c(O)c1)C(=O)O [L-DOPA],"brain pathology (brain smear appearance, effect on MPTP induced toxicity on neuronal cells)",[1]; FIG. 5,did not have significant effect
same,change in neurodegenerative cell number compared to MPTP group,"[1]; day 8, FIG. 5",non-significant decrease
same,movement behavior on continued treatment (beyond day 3),[2],heightened movement behavior
